Measurements taken from US10029996B2, “Class of cyano-substituted asymmetric cyanine dyes, synthesizing method and application thereof” (DALIAN UNIVERSITY OF TECHNOLOGY, priority 2013, dated 2018).

Legend:
[1] = test system: CT DNA; assay: Fluorescence quantum yield in the presence of DNA; assay type: physicochemical; details: 1 μM in Tris-HCl buffer, saturated DNA; Rhodamine B as standard; mean of triplicate
Experimental: A saturated amount of CT DNA was added into the 1 μM compound C solution in Tris-HCl buffer to keep a maximum absorbance less than 0.1 as determined by a UV-Vis Spectrophotometer. Fluorescence intensities are measured at selected excitation wavelengths of 545 nm, 550 nm and 555 nm, respectively. For each compound, the determination is made in triplicate, the fluorescence quantum yield of each determination is calculated, and the mean value is taken. Using Rhodamine B as the standard (ΦF=0.97, methanol, 15° C.), the calculated fluorescence quantum yields in buffer solution of compound C in the presence of DNA is 0.73. The equipments used are a UV-Vis spectrophotometer (Hp8453) and a spectrofluorophotometer (PTI-700).
A saturated amount of DNA was added into the 1 μM reference compound M1 solution in Tris-HCl buffer to keep a maximum absorbance less than 0.1 as determined by a UV-Vis Spectrophotometer. Fluorescence intensities are measured at selected excitation wavelengths of 585 nm, 590 nm and 595 nm, respectively. For each compound, the determination is made in triplicate, the fluorescence quantum yield of each determination is calculated, and the mean value is taken. Using Rhodamine B as the standard (ΦF=0.97, methanol, 15° C.), the calculated fluorescence quantum yields in buffer solution of reference compound M1 in the presence of DNA is 0.16. […]

[2] = test system: living cells; assay: MTT cytotoxicity assay in living cells; assay type: cell-based; details: 6 h, serial concentrations 0, 1, 3, 5 μM
Experimental: The Compounds C, D, E and reference compound M1 at serial concentrations (0, 1, 3, and 5 μM) were added to cells counted in a confocal microscope dish for 6 h. Then MTT tetrazolium solution (100 μL of 0.5 mg/ml in PBS) was added to each well, and the cells further incubated for 2 h. Excess MTT tetrazolium solution was then carefully removed and the colored formazan was dissolved in dimethyl sulfoxide (DMSO). The absorbance was measured at 490 nm using a microplate reader to measure the toxicity of compound.

[3] = Photofading under iodine-tungsten lamp irradiation in Tris-HCl buffer; assay type: physicochemical; details: 5×10^−6 M in Tris-HCl 10 mM pH 7.4; 500 W iodine-tungsten lamp, 20 cm; after 6 h of radiation
Experimental: 5×10^−6M solutions of compounds C, D, E and reference compound M1 in Tris-HCl (10 mM, pH=7.4, same below) buffer were be sealed into the cuvettes respectively. To absorb short wavelength light (<400 nm), a trap of glass containing 50 g/L NaNO2 was set up between the cells and the lamp. In the other hand, NaNO2 solution can be used as a cold trap to keep the sample at room temperature. After the absorption of samples were monitored, solutions of the samples were irradiated with a 500 W iodine-tungsten lamp. The distance between the cells and the lamp was 20 cm. The irreversible bleaching of the dyes at the absorption peak was monitored as a function of time at 1 hour intervals. The equipment used is a UV-Vis spectrophotometer Lambda 8453.

[4] = test system: CT DNA; assay: Absorption and fluorescence emission spectra in the absence and presence of DNA in buffer; assay type: physicochemical; details: 2 μM in Tris-HCl buffer, absence and presence of saturated CT DNA; for maximum emission wavelength: excitation 550 nm
Experimental: 2 μM solutions of compounds C, D, and E in Tris-HCl (10 mM, pH=7.4, same below) buffer were be added into the cuvettes and determined its absorption respectively. The exited wavelength of the fluorescence spectra was 550 nm for all compounds. A saturated amount of CT DNA was added into the above solution, then the solution was determined its absorption respectively. The exited wavelength of the fluorescence spectra was 550 nm for all compounds. The equipments used are a UV-Vis spectrophotometer (Hp8453) and a spectrofluorophotometer (PTI-700). FIGS. 2, 3, and 4 are the absorption and fluorescence emission spectra of compounds C, D, and E in the absence and presence of DNA respectively in buffer solution respectively. […] Therefore, in confocal fluorescence image tests of compounds, the exited wavelength is selected 559 nm and the collected emission wavelength was 575-625 nm.

[5] = test system: MCF7 cells; assay: Fluorescence imaging of live cells stained with dye; assay type: cell-based, human; details: 45 min, compound D 2 μM, M1 3 μM, confocal microscopy
Experimental: MCF7 cells (human breast adenocarcinoma cell line) were cultured in DEME medium supplemented with 10% fetal bovine serum at 37° C. in an atmosphere containing 5% CO2 for 24 h. For live cell imaging, compound D (2 μM) or reference compound M1 (3 μM) was added to cells for 45 min and washed with PBS (phosphate-buffered saline) three times. After replacement of the medium, cells were imaged using a confocal fluorescence microscope. […] The confocal laser scanning microscope is Olympus FV1000.

[6] = test system: MCF7 cells; assay: Colocalization fluorescence imaging with commercial nucleic acid stain SYTO9; assay type: cell-based, human; details: compound E 2.0 μM 45 min after SYTO9 3.0 μM 45 min; λex=559 nm, λem=575-625 nm
Experimental: The cells were cultured as shown example 10, were first cultured with 3.0 μM of available commercial nucleic acid stain SYTO9 for 45 min, and then washed with PBS three times. Cells were then incubated with compound E (2.0 μM) for 45 min, and then washed with PBS three times. After replacement of DEME medium, cells were imaged using confocal fluorescence microscope.
FIG. 6a is the fluorescence image of SYTO 9 (λex=488 nm, λem=500 nm to 550 nm) and FIG. 6b is the fluorescence image of compound E (λex=559 nm, λem=575 nm to 625 nm). […] The equipment used is an Olympus FV1000 confocal laser scanning microscope.

[7] = test system: CT DNA; details: methanol, 15° C.; cited from earlier work

SMILES | fluorescence quantum yield in the presence of DNA [1] | cytotoxicity in high concentration relative to M1 [2] | cytotoxicity in low concentrations [2] | optical density remaining after radiation (photostability) [3] [%] | maximum absorption wavelength [4] | maximum emission wavelength [4] | staining pattern in live cells [5] | subcellular regions stained (colocalization with SYTO9) [6] | fluorescence quantum yield of standard (ΦF) [7]
CC[n+]1ccc(/C=C/C(C#N)=C2/Sc3ccccc3N2C)c2ccccc21.[I-] [Compound C] | 0.73 | less cytotoxic than reference compound M1 | low cytotoxicity | 90 | about 545 nm | about 610 nm | – | – | –
CN1/C(=C(C#N)\C=C\c2cc[n+](CCO)c3ccccc23)Sc2cc(Cl)ccc21.Cl [Compound D] | – | less cytotoxic than reference compound M1 | low cytotoxicity | 90 | about 545 nm | about 610 nm | clear nucleolar staining as well as faint nucleus staining | – | –
C=CCCN1/C(=C(C#N)\C=C\c2cc[n+](CC)c3cc(OC)ccc23)Sc2ccccc21.[I-] [Compound E] | – | – | – | 90 | about 545 nm | about 610 nm | – | nucleus and nucleolus | –
CC[n+]1ccc(/C=C/C=C2/Sc3ccccc3N2C)c2ccccc21.[I-] [Compound M1, reference compound] | 0.16 | – | low cytotoxicity | ~0 | – | – | clear nucleolar staining as well as faint nucleus staining | – | –
CCN(CC)c1ccc2c(-c3ccccc3C(=O)O)c3ccc(=[N+](CC)CC)cc-3oc2c1.[Cl-] [Rhodamine B] | – | – | – | – | – | – | – | – | 0.97
